Reference: US12569495B2, “Inhibitors of porcine reproductive and respiratory syndrome virus” (UNIVERSITY OF CONNECTICUT, priority 2020, dated 2026)

How the values were obtained:
[1] = biological target: T1, protein-protein interactions (PPI) between CD163-SRCR5 domain and PRRSV GP2a protein (Sus scrofa, UniProt Q2VL90); assay: BiFC assay between SRCR5-VN and GP2a-VC proteins; type: cell-based, porcine CD163; PRRSV; conditions: for inhibitory function in BiFC assay compared with B7: methyl and/or fluoro groups removed from the benzenesulfonamide moiety; for inhibition of CD163-SRCR5/GP2a PPI in the BiFC assay, B7 analogues: HEK293T cells, DMSO as Ctrl, concentration not given
T1 construct: The amplified cDNA fragments of SRCR2 or SRCR5 were subcloned into the pBiFC-VN155(I152L) vector; Myc tag (from vector backbone pMyc-CMV); expressed in transfected cells; host or cells: HEK293T
Excerpt: The N-terminus and C-terminus of the truncated Venus-I152L were inserted into vector backbone pMyc-CMV and pCMV-HA, constituting commercial plasmids pBiFC-VN155(I152L) and pBiFC-VC155, respectively (Addgene, Watertown, MA, USA). See Kodama and Hu, Biotechniques 49:793-805 (2010). cDNA fragments for the scavenger receptor cysteine-rich domain 2 (SRCR2) and SRCR5 of porcine CD163 receptor, and for PRRSV glycoproteins GP2a and GP4 were amplified by RT-PCR. The amplified cDNA fragments of SRCR2 or SRCR5 were subcloned into the pBiFC-VN155(I152L) vector digested with EcoRI/BglII. For constructions of GP2a and GP4 fusion proteins, cDNA fragments encoding GP2a or GP4 were subcloned into the pBiFC-VC155 vector digested with EcoRI/BglII. All plasmid clones were verified by DNA Sanger sequencing.
HEK293T cells cultured in 12-well plates were transfected with appropriate plasmids for each BiFC assay using FuGENE® 6 (Promega, Madison, WI, USA). After 5 h, various concentrations of chemical compounds were added to the culture media. DMSO was used as the vehicle control. Fluorescence images of treated cells at 24 h after plasmid transfection were captured using an inverted Nikon fluorescence microscope. Fluorescence intensity of treated cells was measured by ImageJ.
Using the previously described BiFC vector based on the fragmented venus protein (VN-155[I152L], hereafter named VN) and (VC-155, hereafter named VC), fusion protein constructs were established between the porcine CD163 protein SRCR5 or SRCR2 domain and VN, and between the PRRSV minor glycoproteins (GP2a or GP4) and VC (FIG. 1A, 2). See Kodama et al., Biotechniques 49(5): 793-805 (2010). These plasmids were co-expressed in HEK293T cells to evaluate the PPIs between the SRCR5 domain and GP2a or GP4.
The BiFC assays was tested to determine whether it could identify small molecules with potential to block the protein-protein interactions between CD163 and PRRSV. A customized virtual screen of a library of commercially available small molecules was performed with the AtomNet® model at a region centered around R561 (FIG. 3) based on the available 3-D protein structure of porcine CD163-SRCR5 domain, and 74 compounds predicted to target this potential binding site were procured. Ma et al., J. Virol. 91(3): e01897-16 (2017). These compounds were tested using the BiFC assay, to evaluate their ability to inhibit the PPI between GP2a and SRCR5. Plasmids were co-transfected in HEK293T cells, 4 h later, compounds were individually administered to cells at 5 μM. Twenty-four hours later, images were taken under a fluorescence microscope and the fluorescence quantified. […] Until these studies, there has been no known biological activity reported for compound B7.

PRRSV strain VR-2332 [2] = assay: PRRSV titration assay of culture media of infected PAMs; type: cell-based; conditions: 15 μM; for log reduction of viral titer: pre- and post-inoculation treatment; for inhibitory function in PRRSV infection assay compared with B7: qRT-PCR and titration (FIG. 7B, 7C)
Protocol: (§1) For PRRSV infection of PAM cells, PAMs were seeded one day prior to infection. […] Cells were inoculated with VR-2332, SDSU73, NADC30 or Lelystad PRRSV at MOI=0.1 for 1 h. The 24 h cell medium supernatant was stored at −80° C. until use.
For PRRSV titration assay, MARC145 cells were seeded in 48-well plates and grew to ˜80% density before inoculation. Viral supernatants were prepared by 10-fold serial dilution, and 100 μl of the dilutions was added per well in six replicates. Inocula were removed from cells after 2 h and replaced with 0.5 mL of DMEM supplemented with 2% FBS, 2 mM glutamine, 0.1 mM MEM non-essential amino acids, 50 U/mL penicillin, and 50 μg/mL streptomycin (Invitrogen). Cells were cultured at 37° C. for 6 days and any cytopathic effects were observed and recorded. The PRRSV titer was calculated using the Reed and Muench method and expressed as median tissue culture infectious dose (TCID50/mL). Reed and Muench, Am. J. Epidemiol. 27(3): 493-497 (1938).

PRRSV strain VR-2332 [3] = assay: qRT-PCR for PRRSV RNA in infected PAMs; type: cell-based; conditions: 15 μM; VR-2332; 24 h
Protocol: Total RNA was extracted from PAMs infected with PRRSV using RNeasy Mini Kit (Qiagen, Germantown, MD) according to the manufacturer's instruction. RNA concentrations were measured using a Nanodrop spectrophotometer (Thermo Fisher Scientific). GAPDH was used as a housekeeping gene for gene expression normalization. Data were processed with the software associated with ABI 7500.
as §1

T1 sequence (Q2VL90 477-577): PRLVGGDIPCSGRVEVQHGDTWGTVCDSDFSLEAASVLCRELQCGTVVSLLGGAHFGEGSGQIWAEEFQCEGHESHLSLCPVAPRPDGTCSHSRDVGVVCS

With `O=S(=O)(Nc1nc2ccccc2nc1Nc1ccc(Cl)c(S(=O)(=O)N2CCOCC2)c1)c1ccccc1` [Compound B7-A1, N-[3-(4-chloro-3-morpholin-4-ylsulfonylanilino)quinoxalin-2-yl] benzenesulfonamide] the “inhibitory function in BiFC assay compared with B7” value [1] was “weakened the compound's inhibitory function”, the “log reduction of viral titer” value (PRRSV strain VR-2332 [2]; 24 h) was 2.2 log and the “inhibitory function in PRRSV infection assay compared with B7” value (PRRSV strain VR-2332 [2]) was “weakened the compound's inhibitory function”.
In the case of `Cc1ccccc1S(=O)(=O)Nc1nc2ccccc2nc1Nc1ccc(S(=O)(=O)N2CCOCC2)cc1` [Compound B7-A2, 2-methyl-N-[3-(4-morpholin-4-ylsulfonylanilino)quinoxalin-2-yl] benzenesulfonamide], the “inhibition of CD163-SRCR5/GP2a PPI in the BiFC assay, B7 analogues” value (from here on “inhibition … in the BiFC assay, B7 analogues”) [1] is reported as “does not eliminate these compounds' ability to inhibit”, the “inhibitory function in BiFC assay compared with B7” value [1] is reported as “weakened the compound's inhibitory function” and the “log reduction of viral titer” value (PRRSV strain VR-2332 [2]; 24 h) is reported as 2.4 log. For the same compound, the “inhibitory function in PRRSV infection assay compared with B7” value (PRRSV strain VR-2332 [2]) was “weakened the compound's inhibitory function”.
`O=S(=O)(Nc1nc2ccccc2nc1Nc1cccc(S(=O)(=O)N2CCOCC2)c1)c1ccccc1` [Compound B7-A3, N-[3-(3-morpholin-4-ylsulfonylanilino)quinoxalin-2-yl] benzenesulfonamide] was tested, and the “inhibitory function in BiFC assay compared with B7” value [1] was “weakened the compound's inhibitory function”, the “log reduction of viral titer” value (PRRSV strain VR-2332 [2]; 24 h) was 1.2 log and the “inhibitory function in PRRSV infection assay compared with B7” value (PRRSV strain VR-2332 [2]) was “weakened the compound's inhibitory function”.
With `Cc1ccc(S(=O)(=O)Nc2nc3ccccc3nc2Nc2cccc(S(=O)(=O)N3CCCCC3)c2)cc1` [Compound B7-A4, 4-methyl-N-[3-(3-piperidin-1-ylsulfonylanilino)quinoxalin-2-yl] benzenesulfonamide] the “inhibition … in the BiFC assay, B7 analogues” value [1] was “does not eliminate these compounds' ability to inhibit” and the “log reduction of viral titer” value (PRRSV strain VR-2332 [2]; 24 h) was 2.8 log.
In the case of `Cc1ccc(S(=O)(=O)Nc2nc3ccccc3nc2N2CCOCC2)cc1` [Compound B7-A5, 4-methyl-N-(3-morpholinoquinoxalin-2-yl)benzenesulfonamide], the “PRRSV RNA level in treated PAMs (qRT-PCR), B7 analogues” value (PRRSV strain VR-2332 [3]) is reported as “failed to inhibit PRRSV RNA level” and the “inhibition … in the BiFC assay, B7 analogues” value [1] is reported as “completely blocked their ability to inhibit”.
`Cc1ccccc1S(=O)(=O)Nc1nc2ccccc2nc1N1CCOCC1` [Compound B7-A6, 2-methyl-N-(3-morpholin-4-ylquinoxalin-2-yl) benzenesulfonamide] was tested, and the “inhibition … in the BiFC assay, B7 analogues” value [1] was “completely blocked their ability to inhibit”.
In the case of `Nc1cccc(S(=O)(=O)N2CCOCC2)c1` [Compound B7-A7, 3-(morpholinosulfonyl)aniline], the “inhibition of PRRSV infection of PAMs (titration of culture media), B7 analogues” value (PRRSV strain VR-2332 [2]; 24 h) is reported as “none of these 2 compounds inhibited PRRSV infection of PAMs”.
